Data as given in the NIST ThermoML archive (doi:10.1021/je301353z).
Numbers after ± are expanded uncertainties.

Tests used:
[1] = molar heat capacity at constant pressure; details: 101.33 kPa, Liquid, Small sample (50 mg) DSC
[2] = 101.33 kPa, Liquid; for speed of sound: Sing-around technique in a fixed-path interferometer; for mass density: Vibrating tube method

| Structure (SMILES) | molar heat capacity at constant pressure ([1]; 293.15 K) | molar heat capacity at constant pressure ([1]; 298.15 K) | molar heat capacity at constant pressure ([1]; 303.15 K) | molar heat capacity at constant pressure ([1]; 308.15 K) | speed of sound ([2]; 293.15 K) | mass density ([2]; 293.15 K) | speed of sound ([2]; 298.15 K) | mass density ([2]; 298.15 K) | speed of sound ([2]; 303.15 K) | mass density ([2]; 303.15 K) | speed of sound ([2]; 308.15 K) | mass density ([2]; 308.15 K) |
| --- | --- | --- | --- | --- | --- | --- | --- | --- | --- | --- | --- | --- |
| CCn1cc[n+](C)c1.F[B-](F)(F)F [1-ethyl-3-methylimidazolium tetrafluoroborate] | 303.41 ± 4.7 J/K/mol | 305.12 ± 4.7 J/K/mol | 306.81 ± 4.8 J/K/mol | 308.58 ± 4.8 J/K/mol | 1631 ± 2.1 m/s | 1283.89 ± 1.7 kg/m3 | 1619.4 ± 2.1 m/s | 1279.91 ± 1.7 kg/m3 | 1607.6 ± 2.1 m/s | 1276.26 ± 1.7 kg/m3 | 1596.3 ± 2.1 m/s | 1272.07 ± 1.7 kg/m3 |
| O=C1CCCN1 [2-pyrrolidinone] | 168.36 ± 2.6 J/K/mol | 169.55 ± 2.6 J/K/mol | 171.18 ± 2.6 J/K/mol | 172.37 ± 2.7 J/K/mol | 1650.1 ± 1.3 m/s | 1111.28 ± 1 kg/m3 | 1633.9 ± 1.3 m/s | 1107.15 ± 1 kg/m3 | 1617.1 ± 1.3 m/s | 1103.02 ± 1 kg/m3 | 1601.8 ± 1.3 m/s | 1098.9 ± 1 kg/m3 |
| CN1CCCC1=O [N-methylpyrrolidone] | 165.44 ± 2.6 J/K/mol | 166.22 ± 2.6 J/K/mol | 166.92 ± 2.6 J/K/mol | 167.21 ± 2.6 J/K/mol | 1565.5 ± 1.3 m/s | 1033.23 ± 1 kg/m3 | 1546 ± 1.2 m/s | 1028.23 ± 1 kg/m3 | 1527.2 ± 1.2 m/s | 1023.46 ± 1 kg/m3 | 1507.4 ± 1.2 m/s | 1018.66 ± 1 kg/m3 |
| c1ccncc1 [pyridine] | 130.49 ± 2 J/K/mol | 131.74 ± 2 J/K/mol | 132.71 ± 2.1 J/K/mol | 133.82 ± 2.1 J/K/mol | 1442 ± 1.2 m/s | 983.195 ± 1 kg/m3 | 1417.8 ± 1.2 m/s | 978.252 ± 1 kg/m3 | 1398 ± 1.2 m/s | 973.228 ± 1 kg/m3 | 1377.1 ± 1.2 m/s | 968.171 ± 1 kg/m3 |
